# Experiments:
# HIF-1α = experiment: Mouse tissue HIF Western blot analysis; type: in vivo
# Protocol: (§1) Mouse Ischemic Hindlimb Study
# (§2) All animal work is conducted in accordance with the Guide for the Care and Use of Laboratory Animals (National Academy of Sciences; Copyright© 1996) and the Institutional Animal Care and Use Committee guidelines at Procter and Gamble Pharmaceuticals. We studied 9-10 week old male C57Bl/6 mice from Charles River Laboratory (Portage, Mich.). The mice are orally dosed with vehicle (aqueous carbonate buffer, 50 mM; pH 9.0) or compound 1 in vehicle at 50 mg/kg or 100 mg/kg. The animals are dosed three times: day 1 at 8 am and 5 pm, day 2 at 8 am. One hour after the first dose, unilateral arterial ligation is performed under anesthesia using isoflurane. The femoral artery is ligated proximal to the origin of the popliteal artery. The contralateral limb underwent a sham surgical procedure. Ligation is performed in an alternating fashion between right and left hindlimbs. Two hours after 8 am dosing on day 2, we obtained blood by ventricular stick while the mice are anesthetized with isoflurane. Serum samples for EPO analysis are obtained using gel clot serum separation tubes. Heart, liver, and gastrocnemius muscles are harvested, snap-frozen in liquid nitrogen, and stored in −80° C. until use.
# Mouse Tissue HIF Western Blot Analysis
# Tissues from mice stored at −80° C. are powdered with mortar and pestle chilled with liquid nitrogen. […]
# EPO = experiment: Mouse serum EPO assay (mouse ischemic hindlimb study); type: in vivo
# Protocol: as §1, §2
# The mouse serum EPO is detected using Mouse Quantikine Erythropoietin ELISA kit from R&D Systems according to manufacturer's instructions.
# [1] = target: Full-length recombinant human EGLN-3 (His-MBP-TVMVEGLN-3 fusion) (Homo sapiens (Human), UniProt Q9H6Z9); experiment: EGLN-3 enzyme activity assay (MALDI-TOF MS); type: biochemical; settings: recombinant human EGLN-3 fusion; HIF-1α peptide 556-574 substrate; read-out: EGLIN3 IC50
# Sequence of Full-length recombinant human EGLN-3 (His-MBP-TVMVEGLN-3 fusion) (Q9H6Z9 whole entry, the tested form may be a part): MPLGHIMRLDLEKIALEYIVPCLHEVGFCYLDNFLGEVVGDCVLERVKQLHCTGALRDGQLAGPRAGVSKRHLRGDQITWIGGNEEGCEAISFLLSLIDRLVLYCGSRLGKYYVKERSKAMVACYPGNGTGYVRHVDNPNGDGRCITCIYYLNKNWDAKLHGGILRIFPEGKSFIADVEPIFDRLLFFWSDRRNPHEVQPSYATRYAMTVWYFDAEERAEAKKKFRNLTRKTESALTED
# Protocol: Hydroxylated peptide product is identified from substrate by the gain of 16 Da. Data defined as percent conversion of substrate to product is analyzed in GraphPad Prism 4 to calculate IC50 values.
Structure (SMILES),"stabilization of HIF-1α in mouse liver (immunoblot of nuclear extracts, FIG. 1) (HIF-1α)",erythropoietin level versus vehicle in mouse serum (FIG. 2) (EPO; mouse serum after oral dosing),"EPO response (EPO; in vivo response, mouse serum EPO)",IC50 [1] [nM]
O=C(O)CNC(=O)c1ncc(-c2cccc(Cl)c2)cc1O [{[5-(3-Chlorophenyl)-3-hydroxypyridine-2-carbonyl]amino}-acetic acid],stabilization of HIF-1α,elevated,–,–
O=C(O)CNC(=O)c1ncc(-c2ccc(Cl)cc2)cc1O [{[5-(4-Chlorophenyl)-3-hydroxypyridine-2-carbonyl]amino}-acetic acid],–,–,yes,83

# Source: patent US9598370B2, “Prolyl hydroxylase inhibitors and methods of use” (Akebia Therapeutics, Inc., priority 2006, dated 2017)
